Where two headings read alike, the source gives them in different places.
Assays:
[1] = tested on: endocytosis of transferrin; assay: Receptor-mediated endocytosis of transferrin in the trypanosome; assay type: cell-based, T. brucei
[2] = tested on: T. brucei brucei Lister 427; assay: Trypanosome replication assay; assay type: cell-based, Trypanosoma brucei brucei; conditions: concentration giving 50% inhibition of growth of T brucei brucei Lister 427 cells, 48 h, values ±7%, read-out: Tbb EC50
HepG2 cells = assay: HepG2 cell toxicity (MTT) assay; assay type: cell-based; conditions: Table 13; read-out: HepG2 TC50
T. cruzi = T. cruzi growth inhibition; assay type: cell-based, Trypanosoma cruzi
L. major promastigote = L. major promastigote assay; assay type: cell-based
L. major amastigote = L. major amastigote assay; assay type: cell-based
P. fal = P. fal assay of Table 13 (strain not given); assay type: cell-based, P. falciparum
[3] = not given; remark: listed apart in the source
logD = assay type: physicochemical
[4] = Thermodynamic aqueous solubility; assay type: physicochemical
[5] = Protein binding (Table 14); conditions: plasma
[6] = Male rat hepatocytes CLint
[7] = Human liver microsomes CLint

Compound | effect on endocytosis of transferrin [1] | EC50 [2] | CC50 (HepG2 cells) | EC50 (T. cruzi) | EC50 (L. major promastigote) | EC50 (L. major amastigote) | EC50 (P. fal) | Human liver microsomes median CLint | Male rat hepatocytes median CLint [3] | EC50 ([2]; Trypanosoma brucei) | EC50 (T. cruzi; Trypanosoma cruzi) | EC50 (L. major promastigote; Leishmania major) | EC50 (L. major amastigote; Leishmania major) | EC50 (P. fal; Plasmodium falciparum) | logD (logD) | Solubility [4] | fraction unbound [5] | Male rat hepatocytes median CLint [6] | Human liver microsomes median CLint [7]
CS(=O)(=O)CCNCc1ccc(-c2ccc3ncnc(Nc4ccc(OCc5cccc(F)c5)c(Cl)c4)c3c2)o1 [Compound 1, lapatinib, reference compound] | inhibited endocytosis of transferrin | – | – | – | – | – | – | – | – | – | – | – | – | – | – | – | – | – | –
CN1CCCN(S(=O)(=O)c2ccc(-c3ccc4ncc(C#N)c(Nc5ccc(OCc6cccc(F)c6)c(Cl)c5)c4c3)cc2)CC1 [NEU-924] | – | 350 nM | > 15000 nM | 90 nM | 920 nM | 1600 nM | 47 nM | 151.8 µL/min/mg | 37.95 μl/min/1E6 cells | – | – | – | – | – | – | – | – | – | –
O=S(=O)(c1ccc(-c2ccc3nccc(Nc4ccc(OCc5ccccc5)c(Cl)c4)c3c2)cc1)N1CCOCC1 [NEU-945, N-(4-(Benzyloxy)-3-chlorophenyl)-6-(4-(morpholinosulfonyl)phenyl)quinolin-4-amine] | – | – | > 5000 nM | – | – | – | – | – | – | 2100 nM | 49000 nM | 200 nM | > 3000 nM | 32 nM | 3.5 | <1 µM | < 0.01 | 13.93 μl/min/1E6 cells | 78.87 µL/min/mg
CN1CCN(S(=O)(=O)c2ccc(-c3ccc4c(Nc5ccc(OCc6cccc(F)c6)c(Cl)c5)ccnc4c3)cc2)CC1 [NEU-961, N-(3-Chloro-4-((3-fluorobenzyl)oxy)phenyl)-7-(4-((4-methylpiperazin-1-yl)sulfonyl)phenyl)quinolin-4-amine] | – | – | > 4000 nM | – | – | – | – | – | – | 79 nM | 730 nM | 1000 nM | 1600 nM | 19 nM | – | – | < 0.01 | 20.24 μl/min/1E6 cells | 142.7 µL/min/mg
CN1CCCN(S(=O)(=O)c2ccc(-c3ccc4c(Nc5ccc(OCc6cccc(F)c6)c(Cl)c5)cnnc4c3)cc2)CC1 [NEU-1017, N-(3-Chloro-4-((3-fluorobenzyl)oxy)phenyl)-7-(4-((4-methyl-1,4-diazepan-1-yl)sulfonyl)phenyl)cinnolin-4-amine] | – | – | 15000 nM | – | – | – | – | – | – | 210 nM | 49000 nM | 6400 nM | 240 nM | 3 nM | – | <1 µM | < 0.01 | 36.72 μl/min/1E6 cells | 99.32 µL/min/mg

— US20150259331A1, “PROTOZOAN PARASITE GROWTH INHIBITORS” (Northeastern University, priority 2014, published 2015)
